Measured values as given in article PMC10410440, “Preclinical PK investigation of a novel IDO1/TDO dual inhibitor—SHR9146 in mouse plasma and tissues by LC-MS/MS” (Frontiers in Oncology, 2023).
“And” between values parts separate entries of the source, which are not always exact repeats. Identical values can stand only once. Like-named read-outs stand apart in the source and are kept apart here.

Test: Tissue distribution of SHR9146 in mice after oral gavage of 40 mg/kg
Assay type: in vivo, ICR mice
Settings: female, 40 mg/kg oral gavage; for concentration at 1 h / concentration at 3 h / concentration at 6 h / concentration at 24 h: ICR, mouse, po
Method: ICR mice with body weight 16–26 g were supplied by Shanghai Lingchang Biotechnology Co., Ltd. (animal breeding license number SCXK (Shanghai) 2013-0018) and housed at Shanghai Institute of Materia Medica, Chinese Academy of Sciences [animal use license number SYXK (Shanghai) 2015-0027]. The mice used in this study were fasted overnight for 12 h but had free access to water. Food was supplied 4 h post-dose. All experiments in this study were conducted in accordance with the Guidelines for the Care and Use of Laboratory Animals of Shanghai Institute of Materia Medica, Chinese Academy of Sciences.
Another set of 30 mice were randomly assigned into five groups with equal numbers, males and females, for tissue distribution study with oral gavage at a single dose of 40 mg/kg at predetermined different time points: pre-dose and post dose at 1, 3, 6, and 24 h, respectively. The whole brain, heart, liver, spleen, lung, kidney, bladder, pancreas, testis, ovary, uterus, stomach, small intestine, adrenal gland, skin, skeletal muscle, thyroid gland, and abdominal fat tissues as well as the whole blood and plasma samples were harvested. Tissue samples were washed with 0.9% sodium chloride solution to remove the residual blood or contents, blotted on a filter paper, and stored at −70°C prior to the analysis.
Protein precipitation was selected for the pretreatment of both the plasma and the tissue homogenate prepared after thawing at room temperature, cut into pieces, and homogenized with a quintuple methanol–water mixture (1:1, v/v) for each tissue sample.
Briefly as follows, an aliquot of 25-μL plasma or tissue homogenate was spiked with 100 μL of internal standard solution (1 μg/mL for plasma, 0.2 μg/mL for tissue homogenate) and 300 μL of methanol added and vortex mixed for 60 s. The mixture was then centrifuged at 14,000 rpm at 4°C for 5.0 min, and the supernatant was diluted with methanol–water (4:1, v/v) in a ratio of 1:9 for the plasma or 1:1 for the tissue homogenate, and 5 μL of the resulting solution was injected for the LC-MS/MS analysis.
After oral administration of 40 mg/kg SHR9146, samples in different tissues at predetermined time points (pre-drug administration, post-drug administration at 1, 3, 6, and 24 h) were collected and prepared for the analysis. The drug concentrations of SHR9146 (μg/g or μg/mL) were determined for each mouse, and the mean and standard deviation were further obtained (Table S7).

[1] = 24 h, individual mice, 40 mg/kg

OCCn1cc(-c2ccc(N3CCC([C@H]4c5c(F)cccc5-c5cncn54)CC3)cc2)cn1 [SHR9146]
SHR9146 concentration in Bladder (1 h, individual mice, 40 mg/kg): 21.036 µg/g and 16.223 µg/g
SHR9146 concentration in Kidney (1 h, individual mice, 40 mg/kg): 18.490 µg/g and 14.219 µg/g
SHR9146 concentration in Liver (1 h, individual mice, 40 mg/kg): 26.622 µg/g and 23.393 µg/g
SHR9146 concentration in Lung (1 h, individual mice, 40 mg/kg): 20.029 µg/g and 15.217 µg/g
SHR9146 concentration in Pancreas (1 h, individual mice, 40 mg/kg): 22.508 µg/g and 15.532 µg/g
SHR9146 concentration in Small intestine (1 h, individual mice, 40 mg/kg): 22.755 µg/g and 23.199 µg/g
SHR9146 concentration in Bladder (3 h, individual mice, 40 mg/kg): 10.878 µg/g and 14.604 µg/g and 5.984 µg/g
SHR9146 concentration in Kidney (3 h, individual mice, 40 mg/kg): 12.786 µg/g and 17.400 µg/g and 8.011 µg/g
SHR9146 concentration in Liver (3 h, individual mice, 40 mg/kg): 20.374 µg/g and 27.066 µg/g and 11.815 µg/g
SHR9146 concentration in Lung (3 h, individual mice, 40 mg/kg): 12.019 µg/g and 16.499 µg/g and 48.938 µg/g
SHR9146 concentration in Pancreas (3 h, individual mice, 40 mg/kg): 13.466 µg/g and 17.374 µg/g and 6.520 µg/g
SHR9146 concentration in Small intestine (3 h, individual mice, 40 mg/kg): 22.446 µg/g and 12.038 µg/g
SHR9146 concentration in Adrenal gland (6 h, individual mice, 40 mg/kg): 4.009 µg/g and 0.427 µg/g and 1.219 µg/g
SHR9146 concentration in Bladder (6 h, individual mice, 40 mg/kg): 1.685 μg/g and BLQ and 0.201 μg/g
SHR9146 concentration in Brain (6 h, individual mice, 40 mg/kg): BLQ
SHR9146 concentration in Kidney (6 h, individual mice, 40 mg/kg): 3.007 µg/g and 0.546 µg/g and 0.744 µg/g
SHR9146 concentration in Liver (6 h, individual mice, 40 mg/kg): 4.132 µg/g and 0.621 µg/g and 1.090 µg/g
SHR9146 concentration in Lung (6 h, individual mice, 40 mg/kg): 2.446 µg/g and 0.717 µg/g and 0.984 µg/g
SHR9146 concentration in Ovary (6 h, individual mice, 40 mg/kg): BLQ
SHR9146 concentration in Pancreas (6 h, individual mice, 40 mg/kg): 1.674 µg/g and 0.089 µg/g and 0.150 µg/g
SHR9146 concentration in Skeletal muscle (6 h, individual mice, 40 mg/kg): BLQ
SHR9146 concentration in Small intestine (6 h, individual mice, 40 mg/kg): 1.815 µg/g and 0.395 µg/g and 0.288 µg/g
SHR9146 concentration in Spleen (6 h, individual mice, 40 mg/kg): BLQ
SHR9146 concentration in Uterus (6 h, individual mice, 40 mg/kg): BLQ
SHR9146 concentration in Whole blood (6 h, individual mice, 40 mg/kg): BLQ
SHR9146 concentration in Abdominal fat (24 h, individual mice): BLQ
SHR9146 concentration in Bladder (24 h, individual mice): BLQ
SHR9146 concentration in Brain (24 h, individual mice): BLQ
SHR9146 concentration in Heart (24 h, individual mice): BLQ
SHR9146 concentration in Kidney (24 h, individual mice): BLQ
SHR9146 concentration in Ovary (24 h, individual mice): BLQ
SHR9146 concentration in Pancreas (24 h, individual mice): BLQ
SHR9146 concentration in Plasma (24 h, individual mice): BLQ
SHR9146 concentration in Skeletal muscle (24 h, individual mice): BLQ
SHR9146 concentration in Skin (24 h, individual mice): BLQ
SHR9146 concentration in Small intestine (24 h, individual mice): BLQ
SHR9146 concentration in Spleen (24 h, individual mice): BLQ
SHR9146 concentration in Uterus (24 h, individual mice): BLQ
SHR9146 concentration in Whole blood (24 h, individual mice): BLQ
SHR9146 concentration in thyroid gland (24 h, individual mice): BLQ
SHR9146 concentration in Adrenal gland [1]: 0.185 µg/g
SHR9146 concentration in Liver [1]: BLQ and 0.058 μg/g
SHR9146 concentration in Lung [1]: 0.151 µg/g and 0.191 µg/g
concentration at 1 h (abdominal fat, 40 mg/kg, 1 h, Mean (n=3), read-out: SHR9146 concentration in Abdominal fat): 13500 ng/g
concentration at 1 h (abdominal fat, 40 mg/kg, 1 h, individual mice, read-out: SHR9146 concentration in Abdominal fat): 11600 ng/g
concentration at 3 h (abdominal fat, 40 mg/kg, 3 h, Mean (n=3), read-out: SHR9146 concentration in Abdominal fat): 8930 ng/g
concentration at 6 h (abdominal fat, 40 mg/kg, 6 h, Mean (n=3), read-out: SHR9146 concentration in Abdominal fat): 416 ng/g
concentration at 1 h (adrenal gland, 40 mg/kg, 1 h, Mean (n=3), read-out: SHR9146 concentration in Adrenal gland): 36600 ng/g
concentration at 1 h (adrenal gland, 40 mg/kg, 1 h, individual mice, read-out: SHR9146 concentration in Adrenal gland): 31300 ng/g
concentration at 3 h (adrenal gland, 40 mg/kg, 3 h, Mean (n=3), read-out: SHR9146 concentration in Adrenal gland): 27800 ng/g
concentration at 6 h (adrenal gland, 40 mg/kg, 6 h, Mean (n=3), read-out: SHR9146 concentration in Adrenal gland): 1880 ng/g
concentration at 24 h (adrenal gland, 40 mg/kg, 24 h, Mean (n=3), read-out: SHR9146 concentration in Adrenal gland): 195 ng/g
concentration at 24 h (adrenal gland, 40 mg/kg, 24 h, individual mice, read-out: SHR9146 concentration in Adrenal gland): 214 ng/g
concentration at 1 h (bladder, 40 mg/kg, 1 h, Mean (n=3), read-out: SHR9146 concentration in Bladder): 16800 ng/g
concentration at 1 h (bladder, 40 mg/kg, 1 h, individual mice, read-out: SHR9146 concentration in Bladder): 13200 ng/g
concentration at 3 h (bladder, 40 mg/kg, 3 h, Mean (n=3), read-out: SHR9146 concentration in Bladder): 10500 ng/g
concentration at 6 h (bladder, 40 mg/kg, 6 h, Mean (n=3), read-out: SHR9146 concentration in Bladder): 629 ng/g
concentration at 1 h (brain, 40 mg/kg, 1 h, Mean (n=3), read-out: SHR9146 concentration in Brain): 2370 ng/g
concentration at 1 h (brain, 40 mg/kg, 1 h, individual mice, read-out: SHR9146 concentration in Brain): 2190 ng/g
concentration at 3 h (brain, 40 mg/kg, 3 h, Mean (n=3), read-out: SHR9146 concentration in Brain): 1560 ng/g
concentration at 6 h (brain, 40 mg/kg, 6 h, Mean (n=3), read-out: SHR9146 concentration in Brain): 87 ng/g
concentration at 6 h (brain, 40 mg/kg, 6 h, individual mice, read-out: SHR9146 concentration in Brain): 261 ng/g
concentration at 1 h (heart, 40 mg/kg, 1 h, Mean (n=3), read-out: SHR9146 concentration in Heart): 9540 ng/g
concentration at 1 h (heart, 40 mg/kg, 1 h, individual mice, read-out: SHR9146 concentration in Heart): 7410 ng/g
concentration at 3 h (heart, 40 mg/kg, 3 h, Mean (n=3), read-out: SHR9146 concentration in Heart): 7040 ng/g
concentration at 6 h (heart, 40 mg/kg, 6 h, Mean (n=3), read-out: SHR9146 concentration in Heart): 334 ng/g
concentration at 1 h (kidney, 40 mg/kg, 1 h, Mean (n=3), read-out: SHR9146 concentration in Kidney): 15300 ng/g
